Data as given in article PMC10831936 (iScience, 2024).
Where “and” joins values, the source holds several entries; their conditions need not be identical. Equal entries are not always repeated. Structures can show the parent of a compound that is named as a salt. Where two headings read alike, the source gives them in different places. Blank lines part the entries; values can stand above or below the molecule they belong to.

Key:
[1] = biological target: EGR1p (MAPK signaling), EGFR; assay: EGR1p pathway sensor luciferase assay, EGFR; type: cell-based, Rattus norvegicus; settings: agonist dose response, PC12 cells, luciferase readout
Procedure: (§1) 50,000 PC12 cells were seeded per 96-well onto poly-L-lysin (PLL)-coated plates and transfected the following day (day in vitro 1, DIV1) with assay plasmids using Lipofectamine 3000 (Thermo Fisher Scientific). For split TEV assays, plasmids (pcDNA3 or pTag4C backbone) encoding receptor-NTEV-tcs-GV, GRB2-SH2-CTEV (for ERBB receptors) or ARBB2-1-383-CTEV (for HTR2A) (all 10 ng/well), and the p10xUAS-luc2 reporter plasmid (10 ng/well) were used. For pathway assays, the receptor plasmids (15 ng/well) and pathway reporter plasmids (15 ng/well) pEGR1p-luc2 for monitoring MAPK signaling, pCRE-CMVmin-luc2 for monitoring cAMP/Ca^2+ signaling, or p6xNFAT-CMVmin-luc2 for Ca^2+ signaling were used. Transient transfections were conducted according to the manufacturer’s instructions. On DIV2, cells were starved in medium containing 1% FCS for 16 h. […] In the case of antagonist assays, compounds were added at increasing doses together with the stimulus. Cells were lysed in 1x passive lysis buffer (Promega) and subjected to a firefly luciferase assay using a self-made substrate for firefly luciferase.[100] Luciferase activity was analyzed in a Mithras LB 940 Multimode Microplate Reader (Berthold Technologies). All assays were run in 96-well plates using six replicates per condition.

ERBB4 EGR1p = assay: ERBBprofiler barcoded EGR1p pathway sensor, ERBB4 co-transfected; settings: for EGR1p (ERBB4) activity EC50 (barcode): agonist dose response, PC12 cells, ERBB4 co-transfected, barcode readout; for IC50: Rattus norvegicus, PC-12, 6 h, read-out: ERBB4 EGR1p IC50
[2] = biological target: EGR1p (MAPK/ERK signaling); assay: ERBBprofiler barcoded EGR1p sensor only (no receptor transfected); settings: agonist dose response, PC12 cells, barcode readout
[3] = system: ERBB receptors, HTR2A, and downstream signaling pathways; assay: ERBBprofiler multiplexed barcoded assay, overall statements across all receptor batches and sensors; settings: PC12 cells, stimulation mix
ERBB2/3 EGR1p = assay: ERBBprofiler barcoded EGR1p pathway sensor, ERBB2/3 co-transfected; settings: read-out: ERBB2/3 EGR1p IC50
ERBB2 [4] = system: ERBB2; design: method as in Schaefer et al., 2007; settings: phospho-WB in NR6 cells; ref Schaefer et al., 2007; read-out: IC50_Literature, ERBB2; cited from earlier work
ERBB4 NFAT = assay: ERBBprofiler barcoded NFAT pathway sensor, ERBB4 co-transfected; type: cell-based, Rattus norvegicus
ERK (MAPK) = system: ERK (MAPK); design: method as in Schaefer et al., 2007; settings: phospho-WB in NR6 cells; ref Schaefer et al., 2007; read-out: IC50_Literature, ERK (MAPK); cited from earlier work
ERBB4 [5] = settings: read-out: IC50_Literature, ERBB4; cell viability overexpressing ERBB4 variants; ref Chakroborty et al., 2022; cited from earlier work
HTR2A NFAT = assay: ERBBprofiler barcoded NFAT pathway sensor, HTR2A co-transfected; settings: for IC50: Rattus norvegicus, PC-12, 6 h, read-out: HTR2A NFAT IC50
EGFR [6] = settings: read-out: IC50_Literature, EGFR; phospho-WB in Cos 7 cells; ref Floc'h et al., 2020; cited from earlier work
HTR2A EGR1p = assay: ERBBprofiler barcoded EGR1p pathway sensor, HTR2A co-transfected; settings: read-out: HTR2A EGR1p IC50
ERBB2 [7] = system: ERBB2; design: method as in La Monica et al., 2017; settings: phospho-WB in PC9/HER2c1 cells; ref La Monica et al., 2017; read-out: IC50_Literature, ERBB2; cited from earlier work
cAMP = assay: GloSensor cAMP assay in PC12 cells; type: cell-based, Rattus norvegicus; settings: Rattus norvegicus, PC-12, 0.25 h, constant stimulation mix, 15 min, cAMP increase
calcium = assay: Fluo-4 AM calcium assay in PC12 cells; type: cell-based, Rattus norvegicus; settings: stimulation mix
EGFR NFAT = assay: ERBBprofiler barcoded NFAT pathway sensor, EGFR co-transfected; type: cell-based, Rattus norvegicus
CRE sensor = CRE sensor only luciferase assay in PC12 cells; type: cell-based, Rattus norvegicus
ERBB4 [8] = system: ERBB4; design: method as in Cross et al., 2014; settings: commercial biochemical kinome panel (Millipore); ref Cross et al., 2014; read-out: IC50_Literature, ERBB4; cited from earlier work
EGFR EGR1p = assay: ERBBprofiler barcoded EGR1p pathway sensor, EGFR co-transfected; settings: read-out: EGFR EGR1p IC50
ERBB3 = settings: read-out: IC50_Literature, ERBB3; cited from earlier work
ERBB2 [9] = settings: read-out: IC50_Literature, ERBB2; cited from earlier work
EGR1p (ERBB4) = assay: EGR1p pathway sensor luciferase assay, ERBB4 transfected; type: cell-based, Rattus norvegicus; settings: agonist dose response, PC12 cells, luciferase readout
Procedure: as §1

EGFR [10] = biological target: EGFR (Homo sapiens, UniProt P00533); assay: ERBBprofiler barcoded split TEV assay, EGFR
EGFR, sequence (P00533 25-1210): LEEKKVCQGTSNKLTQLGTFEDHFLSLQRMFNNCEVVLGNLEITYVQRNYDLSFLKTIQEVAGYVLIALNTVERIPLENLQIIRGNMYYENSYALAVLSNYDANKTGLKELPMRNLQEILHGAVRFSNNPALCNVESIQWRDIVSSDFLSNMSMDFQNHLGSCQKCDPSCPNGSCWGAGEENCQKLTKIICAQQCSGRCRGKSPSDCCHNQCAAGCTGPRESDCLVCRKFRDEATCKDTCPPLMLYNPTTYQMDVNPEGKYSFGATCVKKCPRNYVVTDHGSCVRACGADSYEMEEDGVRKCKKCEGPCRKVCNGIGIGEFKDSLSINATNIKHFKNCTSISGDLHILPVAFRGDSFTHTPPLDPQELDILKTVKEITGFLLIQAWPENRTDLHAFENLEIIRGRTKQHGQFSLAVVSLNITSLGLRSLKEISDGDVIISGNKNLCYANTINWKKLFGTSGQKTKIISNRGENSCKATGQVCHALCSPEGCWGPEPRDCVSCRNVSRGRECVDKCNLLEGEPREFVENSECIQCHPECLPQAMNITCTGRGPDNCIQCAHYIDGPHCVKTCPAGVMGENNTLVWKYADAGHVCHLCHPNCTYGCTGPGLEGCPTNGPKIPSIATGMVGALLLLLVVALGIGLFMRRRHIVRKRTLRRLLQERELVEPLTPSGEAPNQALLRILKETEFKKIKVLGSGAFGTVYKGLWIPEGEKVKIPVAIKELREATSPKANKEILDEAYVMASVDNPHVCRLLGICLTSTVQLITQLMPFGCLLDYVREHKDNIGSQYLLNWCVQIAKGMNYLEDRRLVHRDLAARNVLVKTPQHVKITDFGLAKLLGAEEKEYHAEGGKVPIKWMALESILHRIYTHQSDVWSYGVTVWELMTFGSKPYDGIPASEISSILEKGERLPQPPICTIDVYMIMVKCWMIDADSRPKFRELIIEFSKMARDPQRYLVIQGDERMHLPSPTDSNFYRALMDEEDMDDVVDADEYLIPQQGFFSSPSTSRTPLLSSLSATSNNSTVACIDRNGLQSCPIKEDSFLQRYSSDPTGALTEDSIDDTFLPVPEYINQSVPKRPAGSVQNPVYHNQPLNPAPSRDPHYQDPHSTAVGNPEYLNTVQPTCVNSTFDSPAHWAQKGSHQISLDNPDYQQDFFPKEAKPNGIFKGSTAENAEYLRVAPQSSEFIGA

ERBB2/3 = ERBB2/3 (Homo sapiens, UniProt P04626+P21860); assay: ERBBprofiler barcoded split TEV assay, ERBB2/3
ERBB2/3 CRE = assay: ERBBprofiler barcoded CRE pathway sensor, ERBB2/3 co-transfected; settings: Rattus norvegicus, PC-12, 6 h, read-out: ERBB2/3 CRE IC50
EGFR CRE = assay: ERBBprofiler barcoded CRE pathway sensor, EGFR co-transfected; settings: Rattus norvegicus, PC-12, 6 h, read-out: EGFR CRE IC50
NFAT (HTR2A) = assay: NFAT pathway sensor luciferase assay, HTR2A transfected; type: cell-based, Rattus norvegicus; settings: agonist dose response, PC12 cells, luciferase readout
Procedure: as §1

CRE (HTR2A) = assay: CRE pathway sensor luciferase assay, HTR2A transfected; type: cell-based, Rattus norvegicus; settings: agonist dose response, PC12 cells, luciferase readout
Procedure: as §1

HTR2A CRE = assay: ERBBprofiler barcoded CRE pathway sensor, HTR2A co-transfected; settings: read-out: CRE (HTR2A) activity EC50 (barcode); agonist dose response, PC12 cells, HTR2A co-transfected, barcode readout
[11] = system: CRE (cAMP/Ca2+ signaling); assay: ERBBprofiler barcoded CRE sensor only (no receptor transfected); settings: Rattus norvegicus, PC-12, read-out: CRE EC50 (barcode)
ERBB4 [12] = biological target: T1, ERBB4 (Homo sapiens, UniProt Q15303); assay: ERBBprofiler barcoded split TEV assay, ERBB4; settings: agonist dose response, PC12 cells, 6 h, split TEV, barcode readout
T1 sequence (Q15303 26-1308): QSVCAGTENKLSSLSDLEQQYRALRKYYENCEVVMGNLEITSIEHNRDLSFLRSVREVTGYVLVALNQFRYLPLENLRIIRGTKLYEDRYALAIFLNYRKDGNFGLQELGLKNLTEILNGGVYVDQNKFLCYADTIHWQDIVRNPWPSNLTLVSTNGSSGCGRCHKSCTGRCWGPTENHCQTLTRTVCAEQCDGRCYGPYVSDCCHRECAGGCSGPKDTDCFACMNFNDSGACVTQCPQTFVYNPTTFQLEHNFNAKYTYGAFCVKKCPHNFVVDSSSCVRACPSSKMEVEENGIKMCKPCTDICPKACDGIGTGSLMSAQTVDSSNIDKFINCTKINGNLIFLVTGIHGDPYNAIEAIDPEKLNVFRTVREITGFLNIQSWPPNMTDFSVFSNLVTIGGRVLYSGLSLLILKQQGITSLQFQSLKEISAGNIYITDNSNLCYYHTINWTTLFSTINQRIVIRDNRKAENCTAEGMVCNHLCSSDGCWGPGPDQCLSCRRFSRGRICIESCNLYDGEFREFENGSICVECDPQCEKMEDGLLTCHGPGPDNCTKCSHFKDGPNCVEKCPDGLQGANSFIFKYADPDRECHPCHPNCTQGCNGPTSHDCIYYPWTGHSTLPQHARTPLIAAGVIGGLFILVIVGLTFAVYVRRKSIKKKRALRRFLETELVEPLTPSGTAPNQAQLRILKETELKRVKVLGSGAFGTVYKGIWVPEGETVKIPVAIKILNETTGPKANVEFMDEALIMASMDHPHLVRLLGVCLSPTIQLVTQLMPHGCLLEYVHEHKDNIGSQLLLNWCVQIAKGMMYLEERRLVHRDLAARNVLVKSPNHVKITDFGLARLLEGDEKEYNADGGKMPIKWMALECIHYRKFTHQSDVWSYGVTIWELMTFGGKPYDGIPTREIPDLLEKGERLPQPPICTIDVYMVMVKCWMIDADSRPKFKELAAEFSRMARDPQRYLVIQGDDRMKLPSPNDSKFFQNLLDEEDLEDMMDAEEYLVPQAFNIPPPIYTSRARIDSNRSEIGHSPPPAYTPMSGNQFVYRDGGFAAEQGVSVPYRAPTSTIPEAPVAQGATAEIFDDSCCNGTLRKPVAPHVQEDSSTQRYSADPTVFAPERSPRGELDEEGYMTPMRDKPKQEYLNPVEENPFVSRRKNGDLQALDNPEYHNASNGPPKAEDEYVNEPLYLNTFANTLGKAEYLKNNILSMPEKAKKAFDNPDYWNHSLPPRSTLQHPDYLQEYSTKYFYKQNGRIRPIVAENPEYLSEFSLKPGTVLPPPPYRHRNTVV

ERBB4 [13] = biological target: T1, ERBB4; assay: Split TEV firefly luciferase assay, ERBB4; type: cell-based; settings: agonist dose response, PC12 cells, split TEV, luciferase readout
Procedure: as §1

- EGR1p activity EC50 (luciferase) [1]: 0.161 ng/mL
- EGR1p (ERBB4) activity EC50 (barcode) (ERBB4 EGR1p): 0.093 ng/mL
- EGR1p activity EC50 (barcode) [2]: 0.089 ng/mL
Molecule: hEGF

- CRE sensor response at high compound concentration (barcoded) ([3]; 10 μM compound): upregulated CRE sensor response
Molecule: C[C@]12CCC(=O)C=C1C=C[C@@H]1[C@@H]2CC[C@@]2(C)[C@H]1CC[C@@]21CCC(=O)O1 [Canrenone]
- inhibition of ERBB receptors and pathways (barcoded ERBBprofiler), in words [3]: did not inhibit any ERBB receptor nor pathway monitored

Molecule: C#Cc1cccc(Nc2ncnc3cc(OCCOC)c(OCCOC)cc23)c1 [Erlotinib, Erlotinib hydrochloride]
- IC50 (ERBB2/3 EGR1p; Rattus norvegicus, PC-12, 6 h): 304 nM
- ERBB4 NFAT IC50 (ERBB4 NFAT): no effect (EGFR, ERBB2/3, ERBB4), 0.098 µM (HTR2A, small effect)
- IC50 (ERBB4 EGR1p): 698 nM
- IC50 (ERK (MAPK)): 160 to 290 nM
- IC50 (HTR2A NFAT): 98 nM

Molecule: C=CC(=O)Nc1cc(Nc2nccc(-c3cn(C)c4ccccc34)n2)c(OC)cc1N(C)CCN(C)C [Osimertinib, Osimertinib (AZD9291)]
- IC50 (HTR2A EGR1p; Rattus norvegicus, PC-12, 6 h): 109 nM
- EC50 (cAMP): 3910 nM
- effect on calcium levels (Fluo-4 AM) (calcium): but not calcium levels
- IC50 (ERBB2/3 EGR1p; Rattus norvegicus, PC-12, 6 h): 56 nM
- EGFR NFAT IC50 (EGFR NFAT): no effect (EGFR, ERBB2/3, ERBB4) - 0.772 µM (HTR2A)
- ERBB4 NFAT IC50 (ERBB4 NFAT): no effect (EGFR, ERBB2/3, ERBB4) - 0.772 µM (HTR2A)
- effect on CRE sensor activity (luciferase), in words (CRE sensor; PC12 cells, CRE sensor only, stimulation mix): CRE sensor activation at high compound concentrations
- EC50 (CRE sensor; Rattus norvegicus, PC-12): 3010 nM
- IC50 (ERBB4 EGR1p): 37 nM
- IC50 (HTR2A NFAT): 772 nM
- IC50 (EGFR EGR1p; Rattus norvegicus, PC-12, 6 h): 80 nM

- IC50 (HTR2A EGR1p; Rattus norvegicus, PC-12, 6 h): 45 nM
- IC50 (HTR2A EGR1p): 34 nM and 34 to 45 nM
- IC50 (ERBB2/3 EGR1p; Rattus norvegicus, PC-12, 6 h): 41 nM
- IC50 (ERBB2/3 EGR1p): 71 nM and 41 to 71 nM
- IC50 (EGFR EGR1p; Rattus norvegicus, PC-12, 6 h): 244 nM
- IC50 (EGFR EGR1p): 122 nM and 122 to 244 nM
Molecule: CS(=O)(=O)CCNCc1ccc(-c2ccc3ncnc(Nc4ccc(OCc5cccc(F)c5)c(Cl)c4)c3c2)o1 [Lapatinib, Lapatinib (GW-572016) Ditosylate]
- EGFR NFAT IC50 (EGFR NFAT): no effect (EGFR, ERBB2/3, ERBB4), 0.352 - 4.531 µM (HTR2A)
- ERBB4 NFAT IC50 (ERBB4 NFAT): no effect (EGFR, ERBB2/3, ERBB4), 0.352 - 4.531 µM (HTR2A)

- EGR1p (ERBB4) activity EC50 (luciferase) (EGR1p (ERBB4)): 0.384 ng/mL
- EGR1p (ERBB4) activity EC50 (barcode) (ERBB4 EGR1p): 0.607 ng/mL
Molecule: Heregulin-β1 (EGF Domain) human (EGF-like domain) [EGFld]

Molecule: CC(=O)S[C@@H]1CC2=CC(=O)CC[C@]2(C)[C@H]2CC[C@@]3(C)[C@@H](CC[C@@]34CCC(=O)O4)[C@H]12 [Spironolactone]
- IC50 (EGFR [10]): > 10000 nM
- IC50 (ERBB2/3): > 10000 nM
- IC50 (ERBB2/3 CRE): 905 nM
- IC50 (EGFR CRE): 8.41 nM
- IC50 (ERBB4 EGR1p): > 10000 nM

- EC50 (NFAT (HTR2A)): 61 nM
- EC50 (CRE (HTR2A)): 465 nM
- EC50 (HTR2A CRE): 164 nM
- EC50 [11]: 167 nM
- EC50 (HTR2A NFAT; read-out: NFAT (HTR2A) activity EC50 (barcode), agonist dose response, PC12 cells, HTR2A co-transfected, barcode readout): 73 nM
Molecule: NCCc1c[nH]c2ccc(O)cc12 [Serotonin, Serotonin hydrochloride]

- ERBB2/3 EC50 (barcode) (ERBB2/3; agonist dose response, PC12 cells, 6 h, split TEV, barcode readout): 0.143 ng/mL
- ERBB4 activity EC50 (barcode) (ERBB4 [12]): 1.372 ng/mL
- ERBB4 activity EC50 (luciferase) (ERBB4 [13]): 0.700 ng/mL
B1: Heregulin-β1 (EGF Domain) human (EGF-like domain) (protein)
chain: TSHLVKCAEKEKTFCVNGGECFMVKDLSNPSRYLCKCPNEFTGDRCQNYVMASFYKHLGIEFMEAEELYQK
modifications: three disulfides
notes: EGF-like domain, ligand for ERBB3 and ERBB4
